Reference: patent US20040229268A1, “Method and kit for identifying antibiotic-resistant microorganisms” (priority 2003, published 2004)
Converted amounts (≈) assume the structure as drawn.

Legend:
Staphylococcus isolates = experiment: Oxacillin Minimum Inhibitory Concentration (Ox MIC); type: cell-based, S. aureus and other Staphylococcus spp.
[1] = tested on: mecA gene; Staphylococcus spp. and S. aureus ribosomal nucleic acids; experiment: HPA probe panel on clinical and ATCC isolates (Examples 8-9); type: binding
Method: Oxacillin MIC results were provided by an outside laboratory. The GP Probe results were determined as described in Example 8.

Compound: Cc1onc(-c2ccccc2)c1C(=O)N[C@@H]1C(=O)N2[C@@H]1SC(C)(C)[C@@H]2C(=O)O [Oxacillin]
- MIC (Staphylococcus isolates; Staphylococcus, Pos Control GP1217): > 16 µg/mL
- MIC (Staphylococcus isolates; Staphylococcus, Table 14, S. hemoliticus, 1 isolate): ≤ 0.25 µg/mL
- MIC (Staphylococcus isolates; Staphylococcus, Table 14, S. hyicus-hyicus, 1 isolate): ≤ 0.25 µg/mL
- MIC (Staphylococcus isolates; Staphylococcus, Table 14, S. intermedius, 1 isolate): ≤ 0.25 µg/mL
- MIC (Staphylococcus isolates; Staphylococcus, clinical isolate GP21, determined at the collection site): < 0.25 µg/mL
- MIC (Staphylococcus isolates; Staphylococcus, clinical isolate GP22, determined at the collection site): 0.5 µg/mL (≈ 1.25 µM)
- MIC (Staphylococcus isolates; Staphylococcus, clinical isolate GP23, determined at the collection site): < 0.25 µg/mL
- MIC (Staphylococcus isolates; Staphylococcus, clinical isolate GP24, determined at the collection site): > 16 µg/mL
- MIC (Staphylococcus isolates; Staphylococcus, clinical isolate GP25, determined at the collection site): > 16 µg/mL
- MIC (Staphylococcus isolates; Staphylococcus, clinical isolate GP26, determined at the collection site): < 0.25 µg/mL
- MIC (Staphylococcus isolates; Staphylococcus, clinical isolate GP27, determined at the collection site): < 0.25 µg/mL
- MIC (Staphylococcus isolates; Staphylococcus, clinical isolate GP28, determined at the collection site): 1 µg/mL (≈ 2.49 µM)
- MIC (Staphylococcus isolates; Staphylococcus, clinical isolate GP29, determined at the collection site): > 16 µg/mL
- MIC (Staphylococcus isolates; Staphylococcus, clinical isolate GP30, determined at the collection site): < 0.25 µg/mL
- MIC (Staphylococcus isolates; Staphylococcus, clinical isolate GP31, determined at the collection site): > 16 µg/mL
- MIC (Staphylococcus isolates; Staphylococcus, clinical isolate GP32, determined at the collection site): < 0.25 µg/mL
- MIC (Staphylococcus isolates; Staphylococcus, clinical isolate GP33, determined at the collection site): > 16 µg/mL
- MIC (Staphylococcus isolates; Staphylococcus, clinical isolate GP34, determined at the collection site): < 0.25 µg/mL
- MIC (Staphylococcus isolates; Staphylococcus, clinical isolate GP35, determined at the collection site): > 16 µg/mL
- MIC (Staphylococcus isolates; Staphylococcus, clinical isolate GP36, determined at the collection site): < 0.25 µg/mL
- MIC (Staphylococcus isolates; Staphylococcus, clinical isolate GP37, determined at the collection site): > 16 µg/mL
- MIC (Staphylococcus isolates; Staphylococcus, clinical isolate GP39, determined at the collection site): < 0.25 µg/mL
- MIC (Staphylococcus isolates; Staphylococcus, clinical isolate GP40, determined at the collection site): < 0.25 µg/mL
- MIC (Staphylococcus isolates; Table 14, ATCC MRSA, first isolate): 8 µg/mL (≈ 19.9 µM)
- MIC (Staphylococcus isolates; Table 14, ATCC MRSA, second isolate): 16 µg/mL (≈ 39.9 µM)
- MIC (Staphylococcus isolates; Table 14, ATCC MSSA, 1 isolate): 1 µg/mL (≈ 2.49 µM)
- MIC (Staphylococcus isolates; Table 14, ATCC MSSA, group of 4 isolates): 0.5 µg/mL (≈ 1.25 µM)
- MIC (Staphylococcus isolates; Table 14, ATCC MSSA, group of 6 isolates): ≤ 0.25 µg/mL
- MIC (Staphylococcus isolates; Table 14, Clinical MRSA, group of 8 isolates): 16 µg/mL (≈ 39.9 µM)
- MIC (Staphylococcus isolates; Table 14, Clinical MRSA, group of 13 isolates): 8 µg/mL (≈ 19.9 µM)
- MIC (Staphylococcus isolates; Table 14, Clinical MRSA, group of 14 isolates, provided by an outside laboratory): 4 µg/mL (≈ 9.96 µM)
- MIC (Staphylococcus isolates; Table 14, Clinical MRSA, group of 107 isolates): > 16 µg/mL
- MIC (Staphylococcus isolates; Table 14, Clinical MSSA, group of 8 isolates): 2 µg/mL (≈ 4.98 µM)
- MIC (Staphylococcus isolates; Table 14, Clinical MSSA, group of 13 isolates): 1 µg/mL (≈ 2.49 µM)
- MIC (Staphylococcus isolates; Table 14, Clinical MSSA, group of 28 isolates): 0.5 µg/mL (≈ 1.25 µM)
- MIC (Staphylococcus isolates; Table 14, Clinical MSSA, group of 99 isolates): ≤ 0.25 µg/mL
- MIC (Staphylococcus isolates; Table 14, S. epidermidis, 1 isolate (mecA(+)), first): 4 µg/mL (≈ 9.96 µM)
- MIC (Staphylococcus isolates; Table 14, S. epidermidis, 1 isolate (mecA(+)), second): > 16 µg/mL
- MIC (Staphylococcus isolates; Table 14, S. epidermidis, group of 2 isolates (mecA(−))): ≤ 0.25 µg/mL
- MIC (Staphylococcus isolates; Table 14, S. hominis, 1 isolate): ≤ 0.25 µg/mL
- MIC (Staphylococcus isolates; Table 14, S. saprophyticus, 1 isolate): 0.5 µg/mL (≈ 1.25 µM)
- MIC (Staphylococcus isolates; Table 14, S. simulans, 1 isolate): ≤ 0.25 µg/mL
- MIC (Staphylococcus isolates; Table 14, S. warneri, 1 isolate): ≤ 0.25 µg/mL
- Ox MIC (Staphylococcus isolates; specimen 10 (mecA PCR Neg)): 8 µg/mL
- Ox MIC (Staphylococcus isolates; specimen 101 (mecA PCR Neg)): 4 µg/mL
- Ox MIC (Staphylococcus isolates; specimen 102 (mecA PCR Pos)): 4 µg/mL
- Ox MIC (Staphylococcus isolates; specimen 103 (mecA PCR Neg)): 4 µg/mL
- Ox MIC (Staphylococcus isolates; specimen 104 (mecA PCR Neg)): 2 µg/mL
- Ox MIC (Staphylococcus isolates; specimen 105 (mecA PCR Neg)): 2 µg/mL
- Ox MIC (Staphylococcus isolates; specimen 106 (mecA PCR Neg)): 2 µg/mL
- Ox MIC (Staphylococcus isolates; specimen 139 (mecA PCR Pos)): 4 µg/mL
- Ox MIC (Staphylococcus isolates; specimen 140 (mecA PCR Pos)): 16 µg/mL
- Ox MIC (Staphylococcus isolates; specimen 142 (mecA PCR Pos)): 4 µg/mL
- Ox MIC (Staphylococcus isolates; specimen 145 (mecA PCR Neg)): 4 µg/mL
- Ox MIC (Staphylococcus isolates; specimen 148 (mecA PCR Pos)): 4 µg/mL
- Ox MIC (Staphylococcus isolates; specimen 155 (mecA PCR Neg)): 4 µg/mL
- Ox MIC (Staphylococcus isolates; specimen 164 (mecA PCR Neg)): 2 µg/mL
- Ox MIC (Staphylococcus isolates; specimen 178 (mecA PCR Pos)): 2 µg/mL
- Ox MIC (Staphylococcus isolates; specimen 188 (mecA PCR Pos)): 2 µg/mL
- Ox MIC (Staphylococcus isolates; specimen 270 (mecA PCR Pos)): <0.25 µg/mL
- Ox MIC (Staphylococcus isolates; specimen #99 (mecA PCR Pos), reported by outside laboratory): 4 µg/mL
- Ox MIC (Staphylococcus isolates; specimen #100 (mecA PCR Neg), reported by outside laboratory): 4 µg/mL

Compound: CCACTCAAGAGAGACAACATTTTCGACTAC (AE label linker 22/23, with helper oligonucleotides, chemistry not fully specified; listed as Staphylococcus aureus) [S. aureus]
- HPA Results (# positive for indicated probes) ([1]; ATCC MRSA, 1 isolate, Oxacillin MIC 16 μg/ml): 1
- HPA Results (# positive for indicated probes) ([1]; ATCC MSSA, 1 isolate, Oxacillin MIC 1 μg/ml): 1
- HPA Results (# positive for indicated probes) ([1]; ATCC MSSA, 4 isolates, Oxacillin MIC 0.5 μg/ml): 4
- HPA Results (# positive for indicated probes) ([1]; ATCC MSSA, 6 isolates, Oxacillin MIC ≦0.25 μg/ml): 6
- HPA Results (# positive for indicated probes) ([1]; Clinical MRSA, 8 isolates, Oxacillin MIC 16 μg/ml): 8
- HPA Results (# positive for indicated probes) ([1]; Clinical MRSA, 107 isolates, Oxacillin MIC >16 μg/ml): 107
- HPA Results (# positive for indicated probes) ([1]; Clinical MSSA, 28 isolates, Oxacillin MIC 0.5 μg/ml): 28
- HPA Results (# positive for indicated probes) ([1]; Clinical MSSA, 99 isolates, Oxacillin MIC ≦0.25 μg/ml): 99
- HPA Results (RLU) ([1]; GP21 (S. aureus, mecA(−), MSSA)): 351348 RLU
- HPA Results (RLU) ([1]; GP22 (CoNS, mecA(+))): 7637 RLU
- HPA Results (RLU) ([1]; GP23 (S. aureus, mecA(−))): 280428 RLU
- HPA Results (RLU) ([1]; GP24 (S. aureus, mecA(+))): 274112 RLU
- HPA Results (RLU) ([1]; GP25 (S. aureus, mecA(+))): 408938 RLU
- HPA Results (RLU) ([1]; GP26 (S. aureus, mecA(−))): 241597 RLU
- HPA Results (RLU) ([1]; GP27 (CoNS, mecA(−))): 7057 RLU
- HPA Results (RLU) ([1]; GP28 (S. aureus, mecA(−))): 195759 RLU
- HPA Results (RLU) ([1]; GP29 (S. aureus, mecA(+))): 416372 RLU
- HPA Results (RLU) ([1]; GP30 (S. aureus, mecA(−))): 399498 RLU
- HPA Results (RLU) ([1]; GP31 (S. aureus, mecA(+))): 332750 RLU
- HPA Results (RLU) ([1]; GP32 (S. aureus, mecA(−))): 414709 RLU
- HPA Results (RLU) ([1]; GP33 (S. aureus, mecA(+))): 154183 RLU
- HPA Results (RLU) ([1]; GP34 (S. aureus, mecA(−))): 497890 RLU
- HPA Results (RLU) ([1]; GP35 (S. aureus, mecA(+))): 484580 RLU
- HPA Results (RLU) ([1]; GP36 (S. aureus, mecA(−))): 356243 RLU
- HPA Results (RLU) ([1]; GP37 (S. aureus, mecA(+))): 373448 RLU
- HPA Results (RLU) ([1]; GP38 (S. aureus, mecA(+))): 367728 RLU
- HPA Results (RLU) ([1]; GP39 (S. aureus, mecA(−))): 268665 RLU
- HPA Results (RLU) ([1]; GP40 (S. aureus, mecA(−))): 283200 RLU
- HPA Results (RLU) ([1]; Neg Control (Hybridization Buffer)): 3472 RLU
- HPA Results (RLU) ([1]; Pos Control GP1217 (S. aureus, mecA(+), MRSA)): 162795 RLU
- HPA Results (# positive for indicated probes) ([1]; S. epidermidis, 1 isolate, Oxacillin MIC >16 μg/ml): 0
- HPA Results (# positive for indicated probes) ([1]; S. epidermidis, 2 isolates, Oxacillin MIC ≦0.25 μg/ml): 0
- HPA Results (# positive for indicated probes) ([1]; S. hemoliticus, 1 isolate, Oxacillin MIC ≦0.25 μg/ml): 0
- HPA Results (# positive for indicated probes) ([1]; S. hominis, 1 isolate, Oxacillin MIC ≦0.25 μg/ml): 0
- HPA Results (# positive for indicated probes) ([1]; S. hyicus-hyicus, 1 isolate, Oxacillin MIC ≦0.25 μg/ml): 0
- HPA Results (# positive for indicated probes) ([1]; S. intermedius, 1 isolate, Oxacillin MIC ≦0.25 μg/ml): 0
- HPA Results (# positive for indicated probes) ([1]; S. saprophyticus, 1 isolate, Oxacillin MIC 0.5 μg/ml): 0
- HPA Results (# positive for indicated probes) ([1]; S. simulans, 1 isolate, Oxacillin MIC ≦0.25 μg/ml): 0
- HPA Results (# positive for indicated probes) ([1]; S. warneri, 1 isolate, Oxacillin MIC ≦0.25 μg/ml): 0
